In assay [1] the target is T1, GST-tagged Tankyrase-1 (1023-1327 aa) (Homo sapiens, UniProt O95271).
T1 construct: GST-tagged Tankyrase-1 (1023-1327 aa)
The experiment in a line: Tankyrase 1 autoparsylation assay (HTRF enzyme assay). In kind it is biochemical. Here is the method: (§1) Biochemical Activity Testing of Tankyrase 1 and 2: Autoparsylation Assay
(§2) The autoparsylation assay is run in two steps: the enzymatic reaction in which GST-tagged Tankyrase-1, resp Tankyrase-2 transferred biotinylated ADP-ribose to itself from biotinylated NAD as co-substrate and the detection reaction where a time resolved FRET between cryptate labelled anti-GST bound to the GST tag of the enzyme and Xlent® labelled-streptavidin bound the biotin-parsylation residue is analysed. The autoparsylation activity was detectable directly via the increase in HTRF signal.
(§3) The autoparsylation assay is performed as 384-well HTRF® (Cisbio, Codolet, France) assay format in Greiner low volume nb 384-well microtiter plates and is used for high throughput screen. 250 nM GST-tagged Tankyrase-1 (1023-1327 aa), respectively about 250 nM GST-tagged Tankyrase-2 (873-1166 aa) and 5 μM bio-NAD (Biolog, Life science Inst., Bremen, Germany) as co-substrate are incubated in a total volume of 5 μl (50 mM HEPES, 4 mM Mg-chloride, 0.05% Pluronic F-68, 1.4 mM DTT, 0.5% DMSO, pH 7.7) in the absence or presence of the test compound (10 dilution concentrations) for 90 min at 30° C. The reaction is stopped by the addition of 1 μl 50 mM EDTA solution. 2 μl of the detection solution (1.6 μM SA-Xlent® (Cisbio, Codolet, France), 7.4 nM Anti-GST-K® (Eu-labelled anti-GST, Cisbio, Codolet, France) in 50 mM HEPES, 800 mM KF, 0.1% BSA, 20 mM EDTA, 0.1% CHAPS, pH 7.0) are added. After 1 h incubation at room temperature the HTRF is measured with an Envision multimode reader (Perkin Elmer LAS Germany GmbH) at excitation wavelength 340 nm (laser mode) and emission wavelengths 615 nm and 665 nm. The ratio of the emission signals is determined. The full value used is the inhibitor-free reaction. The pharmacological zero value used is XAV-939 (Tocris) in a final concentration of 5 μM. The inhibitory values (IC50) are determined using either the program Symyx Assay Explorer® or Condosseo® from GeneData.
Background: Time-resolved FRET reads energy transfer from a long-lived donor to a nearby acceptor.

In assay [2] the target is T2, GST-tagged Tankyrase-2 (873-1166 aa) (Homo sapiens, UniProt Q9H2K2).
T2 construct: GST-tagged Tankyrase-2 (873-1166 aa)
T2 sequence (Q9H2K2 873-1166): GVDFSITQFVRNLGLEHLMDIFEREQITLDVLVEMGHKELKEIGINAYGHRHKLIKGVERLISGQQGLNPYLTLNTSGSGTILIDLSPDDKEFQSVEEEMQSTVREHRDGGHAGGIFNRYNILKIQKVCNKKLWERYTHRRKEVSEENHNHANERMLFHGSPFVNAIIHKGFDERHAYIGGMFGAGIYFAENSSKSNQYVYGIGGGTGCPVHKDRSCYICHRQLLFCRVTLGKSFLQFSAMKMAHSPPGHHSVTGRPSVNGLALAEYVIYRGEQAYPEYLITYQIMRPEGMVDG
Briefly: Tankyrase 2 autoparsylation assay (HTRF enzyme assay). In kind it is biochemical. Here is the method: as §1, §2, §3

The target of another assay is T3, His-tagged Parp-1 (Homo sapiens, UniProt P09874).
T3 construct: purchased Enzo Life Sciences GmbH
T3 sequence (P09874 whole entry): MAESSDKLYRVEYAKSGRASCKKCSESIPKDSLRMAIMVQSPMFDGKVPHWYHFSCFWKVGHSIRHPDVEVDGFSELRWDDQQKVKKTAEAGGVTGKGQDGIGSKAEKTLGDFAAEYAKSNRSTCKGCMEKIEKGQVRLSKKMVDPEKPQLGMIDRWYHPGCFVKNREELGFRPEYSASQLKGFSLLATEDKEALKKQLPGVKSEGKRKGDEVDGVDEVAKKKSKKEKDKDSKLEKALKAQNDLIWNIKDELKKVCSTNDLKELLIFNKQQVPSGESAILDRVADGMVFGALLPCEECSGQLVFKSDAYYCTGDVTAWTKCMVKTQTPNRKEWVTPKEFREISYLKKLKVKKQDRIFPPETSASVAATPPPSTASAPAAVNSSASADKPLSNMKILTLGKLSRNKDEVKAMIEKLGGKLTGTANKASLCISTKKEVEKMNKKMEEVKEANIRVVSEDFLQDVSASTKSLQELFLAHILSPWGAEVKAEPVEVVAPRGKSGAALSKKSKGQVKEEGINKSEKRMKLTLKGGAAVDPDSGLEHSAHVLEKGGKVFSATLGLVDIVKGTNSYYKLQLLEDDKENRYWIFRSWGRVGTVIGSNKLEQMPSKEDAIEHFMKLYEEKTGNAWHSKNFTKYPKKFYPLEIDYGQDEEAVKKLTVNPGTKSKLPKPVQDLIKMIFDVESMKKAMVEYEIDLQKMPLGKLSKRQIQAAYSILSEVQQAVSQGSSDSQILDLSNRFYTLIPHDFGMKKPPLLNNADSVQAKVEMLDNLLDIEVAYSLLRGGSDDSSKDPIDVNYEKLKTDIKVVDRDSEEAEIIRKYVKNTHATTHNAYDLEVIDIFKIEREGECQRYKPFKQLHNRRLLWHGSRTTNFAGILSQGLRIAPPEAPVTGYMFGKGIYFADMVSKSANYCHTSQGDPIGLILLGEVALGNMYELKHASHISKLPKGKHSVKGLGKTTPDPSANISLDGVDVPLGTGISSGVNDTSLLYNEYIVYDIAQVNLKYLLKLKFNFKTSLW
Briefly: PARP-1 autoparsylation assay (HTRF). The assay is classed as biochemical. The conditions noted are these: PARP-1 autoparsylation HTRF assay. An excerpt: Description of the PARP1 Assay
Biochemical Activity Testing of PARP-1: Autoparsylation Assay
The autoparsylation assay is run in two steps: the enzymatic reaction in which
His-tagged Parp-1 transfers biotinylated ADP-ribose/ADP-ribose to itself from biotinylated NAD/NAD as co-substrate and the detection reaction where a time resolved FRET between cryptate labelled anti-His antibody bound to the His tag of the enzyme and Xlent® labelled-streptavidin bound the biotin-parsylation residue is analysed. The autoparsylation activity is detectable directly via the increase in HTRF signal.
The autoparsylation assay is performed as 384-well HTRF® (Cisbio, Codolet, France) assay format in Greiner low volume nb 384-well microtiter plates. 35 nM His-tagged Parp-1 (human, recombinant, Enzo Life Sciences GmbH, Lörrach, Germany) and a mixture of 125 nM bio-NAD (Biolog, Life science Inst., Bremen, Germany) and 800 nM NAD as co-substrate are incubated in a total volume of 6 μl (100 mM Tris/HCl, 4 mM Mg-chloride, 0.01% IGEPAL® CA630, 1 mM DTT, 0.5% DMSO, pH 8, 13 ng/μl activated DNA (BPS Bioscience, San Diego, US)) in the absence or presence of the test compound (10 dilution concentrations) for 150 min at 23° C. The reaction is stopped by the addition of 4 μl of the Stop/detection solution (70 nM SA-Xlent® (Cisbio, Codolet, France), 2.5 nM Anti-His-K® (Eu-labelled anti-His, Cisbio, Codolet, France) in 50 mM HEPES, 400 mM KF, 0.1% BSA, 20 mM EDTA, pH 7.0). After 1 h incubation at room temperature the HTRF is measured with an Envision multimode reader (Perkin Elmer LAS Germany GmbH) at excitation wavelength 340 nm (laser mode) and emission wavelengths 615 nm and 665 nm. The ratio of the emission signals is determined. The full value used is the inhibitor-free reaction. The pharmacological zero value used is Olaparib (LClabs, Woburn, US) in a final concentration of 1 μM. The inhibitory values (IC50) are determined using either the program Symyx Assay Explorer® or Condosseo® from GeneData.

The next assay deals with tankyrase 1/2. The experiment in a line: Cellular inhibition of Tankyrase: increase of Axin2 level in DLD1 cells (Luminex). The conditions noted are these: 24 hours, read-out: EC50 tankyrase 1/2 (cell assay). The assay is classed as cell-based. Here is the method:
Measurement of Cellular Inhibition of Tankyrase
Since Tankyrases have been described to modulate cellular level of Axin2 (Huang et al., 2009; Nature) the increase of Axin2 level is used as read-out for determination of cellular inhibition of Tankyrases in a Luminex based assay.
Cells of the colon carcinoma cell line DLD1 are plated in 96 well plates with 1.5×10^4 cells per well. Next day, cells are treated with a serial dilution of test compound in seven steps as triplicates with a final DMSO concentration of 0.3%. After 24 hours, cells are lysed in lysis buffer (20 mM Tris/HCl pH 8.0, 150 mM NaCl, 1% NP40, 10% Glycerol) and lysates are cleared by centrifugation through a 96 well filter plate (0.65 μm). Axin2 protein is isolated from cell lysates by incubation with a monoclonal anti-Axin2 antibody (R&D Systems #MAB6078) that is bound to fluorescent carboxybeads. Then, bound Axin2 is specifically detected with a polyclonal anti-Axin2 antibody (Cell Signaling #2151) and an appropriate PE-fluorescent secondary antibody. The amount of isolated Axin2 protein is determined in a Luminex^200 machine (Luminex Corporation) according to the manufacturer's instruction by counting 100 events per well. Inhibition of Tankyrase by test compounds results in higher levels of Axin2 which directly correlates with an increase of detectable fluorescence. As controls cells are treated with solvent alone (neutral control) and with a Tankyrase reference inhibitor IWR-2 (3E-06 M) which refers as control for maximum increase of Axin2. For analysis, the obtained data are normalized against the untreated solvent control and fitted for determination of the EC50 values using the Assay Explorer software (Accelrys).

In assay [3] the target is T4, GST-tagged Tnks-1 (1023-1327 aa) (Homo sapiens, UniProt O95271).
T4 construct: GST-tagged Tnks-1 (1023-1327 aa, prepared in-house); made in house
T4 sequence (O95271 1023-1327): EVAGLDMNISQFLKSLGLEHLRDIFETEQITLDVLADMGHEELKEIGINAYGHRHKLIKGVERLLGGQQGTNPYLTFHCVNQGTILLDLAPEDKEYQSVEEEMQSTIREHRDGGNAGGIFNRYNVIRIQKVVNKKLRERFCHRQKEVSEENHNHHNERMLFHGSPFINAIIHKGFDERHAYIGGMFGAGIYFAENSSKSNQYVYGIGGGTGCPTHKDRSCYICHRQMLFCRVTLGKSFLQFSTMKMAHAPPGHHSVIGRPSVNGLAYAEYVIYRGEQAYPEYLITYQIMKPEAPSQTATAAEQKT
Briefly: TNKS1 activity ELISA (autoparsylation assay). In kind it is biochemical. Here is the method:
(§4) Description of the TNKS1 and TNKS2 ELISA Assay
(§5) Biochemical Activity Testing of TNKS 1 and 2: Activity ELISA (Autoparsylation Assay)
(§6) For analysis of autoparsylation activity of TNKS 1 and 2 an activity ELISA is performed: In the first step GST tagged TNKS is captured on a Glutathione coated plate. Then the activity assay with biotinylated NAD is performed in the absence/presence of the compounds. During the enzymatic reaction GST tagged TNKS transfers biotinylated ADP-ribose to itself from biotinylated NAD as co-substrate. For the detection streptavidin-HRP conjugate is added that binds to the biotinylated TNKS and is thereby captured to the plates. The amount of biotinylated resp. autoparsylated TNKS is detected with a luminescence substrate for HRP. The level of the luminescence signal correlates directly with the amount of autoparsylated TNKS and therefore with activity of TNKS.
(§7) The activity ELISA is performed in 384 well Glutathione coated microtiter plates (Express capture Glutathione coated plate, Biocat, Heidelberg, Germany). The plates are pre-equilibrated with PBS. Then the plates are incubated with 50 μl 20 ng/well GST-tagged Tnks-1 (1023-1327 aa, prepared in-house), respectively GST-tagged Tnks-2 (873-1166 aa, prepared in-house) in assay buffer (50 mM HEPES, 4 mM Mg-chloride, 0.05% Pluronic F-68, 2 mM DTT, pH 7.7) overnight at 4° C. The plates are washed 3 times with PBS-Tween-20. The wells are blocked by incubation at room temperature for 20 minutes with 50 μl blocking buffer (PBS, 0.05% Tween-20, 0.5% BSA). Afterwards the plates are washed 3 times with PBS-Tween-20. The enzymatic reaction is performed in 50 μl reaction solution (50 mM HEPES, 4 mM Mg-chloride, 0.05% Pluronic F-68, 1.4 mM DTT, 0.5% DMSO, pH 7.7) with 10 μM bio-NAD (Biolog, Life science Inst., Bremen, Germany) as co-substrate in the absence or presence of the test compound (10 dilution concentrations) for 1 hour at 30° C. The reaction is stopped by 3 times washing with PBS-Tween-20. For the detection 50 μl of 20 ng/μl Streptavidin, HRP conjugate (MoBiTec, Göttingen, Germany) in PBS/0.05% Tween-20/0.01% BSA are added and the plates are incubated for 30 minutes at room temperature. After three times washing with PBS-Tween-20 50 μl of SuperSignal ELISA Femto Maximum sensitivity substrate solution (ThermoFisherScientific (Pierce), Bonn, Germany) are added. Following a 1 minute incubation at room temperature luminescence signals are measured with an Envision multimode reader (Perkin Elmer LAS Germany GmbH) at 700 nm. The full value used is the inhibitor-free reaction. The pharmacological zero value used is XAV-939 (Tocris) in a final concentration of 5 μM. The inhibitory values (1050) are determined using either the program Symyx Assay Explorer® or Condosseo® from GeneData.
For orientation: ELISA stands for enzyme-linked immunosorbent assay.

Assay [4] addresses T5, GST-tagged Tnks-2 (873-1166 aa) (Homo sapiens, UniProt Q9H2K2).
T5 construct: GST-tagged Tnks-2 (873-1166 aa, prepared in-house); made in house
Briefly: TNKS2 activity ELISA (autoparsylation assay). The assay is classed as biochemical. Here is the method: as §4, §5, §6, §7

Where only a bound is given, the exact number is not on record here.

T1 sequence (O95271 1023-1327): as above
T5 sequence (Q9H2K2 873-1166): as the sequence (Q9H2K2 873-1166) above

For `COc1ccc(-c2cn3cccc3c(=O)[nH]2)cc1OC` [Compound A8, 3-(3,4-dimethoxy-phenyl)-2H-pyrrolo[1,2-a]pyrazin-1-one], the half-maximal inhibitory concentration (IC50) was 300 to 3000 nM in assay [1], 3000 to 50000 nM in assay [2] and 3000 to 50000 nM against His-tagged Parp-1.

For `O=c1[nH]c(-c2ccc([N+](=O)[O-])cc2)cn2cccc12` [Compound A6, 3-(4-nitro-phenyl)-2H-pyrrolo[1,2-a]pyrazin-1-one], the concentration for half-maximal inhibition (IC50) in assay [1] was under 300 nM; in assay [2], under 300 nM; on His-tagged Parp-1 it was 300 to 3000 nM.

For `O=c1[nH]c(-c2cccc(Cl)c2)cn2cccc12` [Compound A3, 3-(3-chloro-phenyl)-2H-pyrrolo[1,2-a]pyrazin-1-one], the half-inhibitory concentration (IC50) (in assay [1]; in assay [2]; at His-tagged Parp-1) was 300 to 3000 nM each time.

On to `O=c1[nH]c(-c2ccc(F)cc2)cn2cccc12` [Compound A10, 3-(4-fluoro-phenyl)-2H-pyrrolo[1,2-a]pyrazin-1-one], for which the IC50 (in assay [1]; in assay [2]; at His-tagged Parp-1) was 300 to 3000 nM in each case.

Consider `COc1ccc(-c2cn3cccc3c(=O)[nH]2)cc1` [Compound A7, 3-(4-methoxy-phenyl)-2H-pyrrolo[1,2-a]pyrazin-1-one], for which the half-inhibitory concentration (IC50) in assay [1] is under 300 nM; in assay [2], 300 to 3000 nM; on His-tagged Parp-1, 300 to 3000 nM. The EC50 in the assay with tankyrase 1/2 was 3000 to 50000 nM.

For `Cc1cc2c(=O)[nH]c(-c3ccc(C(C)(C)C)cc3)cn2c1` [Compound A38, 3-(4-tert-butyl-phenyl)-7-methyl-2H-pyrrolo[1,2-a]pyrazin-1-one], the EC50 in the assay on tankyrase 1/2 was under 300 nM. Besides, the IC50 in assay [3] and in assay [4] was under 300 nM each time.

With `Cc1ccc2c(=O)[nH]c(-c3ccc(C(C)(C)O)cc3)cn12` [Compound A95], the EC50 in the assay with tankyrase 1/2 is under 300 nM. Moreover, the IC50 in assay [4] was under 300 nM.

In the case of `O=c1[nH]c(-c2ccc3c(c2)OCO3)cn2cccc12` [Compound A9, 3-benzo[1,3]dioxol-5-yl-2H-pyrrolo[1,2-a]pyrazin-1-one], the IC50 in assay [1] is 300 to 3000 nM; in assay [2], 300 to 3000 nM; against His-tagged Parp-1 it was 3000 to 50000 nM.

With `Cc1cc2c(=O)[nH]c(-c3ccc(N4CCCC4)cc3)cn2n1` [Compound A37, 2-methyl-6-(4-pyrrolidin-1-yl-phenyl)-5H-pyrazolo[1,5-a]pyrazin-4-one], the IC50 in assay [1] is under 300 nM; in assay [2], 300 to 3000 nM; in assay [3], under 300 nM. For the same compound, the EC50 with tankyrase 1/2 was 300 to 3000 nM.

As to `COc1cccc(-c2cn3cccc3c(=O)[nH]2)c1` [Compound A4, 3-(3-methoxy-phenyl)-2H-pyrrolo[1,2-a]pyrazin-1-one], the half-maximal inhibitory concentration (IC50) (in assay [1]; in assay [2]; against His-tagged Parp-1) was 300 to 3000 nM each time.

Turning to `O=c1[nH]c(-c2ccc(OCc3ccccc3)cc2)cn2cccc12` [Compound A1, 3-(4-benzyloxy-phenyl)-2H-pyrrolo[1,2-a]pyrazin-1-one], the half-maximal inhibitory concentration (IC50) in assay [1] is under 300 nM; in assay [2], 300 to 3000 nM; against His-tagged Parp-1, 300 to 3000 nM.

Take `O=c1[nH]c(-c2ccc(C(F)(F)F)cc2)cn2cccc12` [Compound A13, 3-(4-trifluoromethyl-phenyl)-2H-pyrrolo[1,2-a]pyrazin-1-one]: the IC50 in assay [1] was 300 to 3000 nM; in assay [2] it was under 300 nM; at His-tagged Parp-1 it was 300 to 3000 nM. In addition, the EC50 with tankyrase 1/2 was in the range of 300 to 3000 nM.

Usually IC50 stands for the concentration needed to halve the response being measured. The low end stands for greater potency in that assay, the high end for weaker potency in that assay.

These data come from patent US9120805B2, “Substituted pyrrolo[1,2-A]pyrazin-1-ones and pyrazolo[1,5-A]pyrazin-4-ones as inhibitors of tankyrase and poly(ADP-ribose)polymerase activity” (Merck Patent GmbH, priority 2012, dated 2015).
